The test deals with HL-60 cells. In words: Surface marker expression profile of HL-60 cells after combinatorial differentiation (flow cytometry, percent positive cells, hierarchical clustering). It is filed as cell-based. The following applies: for expression of cell surface marker CD 125w: med concentrations, sodium butyrate at pH 7.8; for monocyte signature profile (CD 14hi, CD11b/Mac-1hi, CD 13+, CD66b-): binary and ternary combinations, clustering on myeloid markers. A general note: Flow cytometry measures light scatter and fluorescence of single cells or particles in a stream.

The values below come from patent US20090023589A1, “METHODS FOR IDENTIFYING CONDITIONS AFFECTING A CELL STATE” (priority 2004, published 2009).

Protocol: HL-60 cells were used to study what factors are involved in cellular differentiation. At day 0, the cells were plated in wells using a 96 well plate at a seeding density of approximately 60,000 cells, appropriate cell media was added. […] Cells were induced with the factors in Table 1 and 2. At day 4, the cells were harvested and labeled with antibody (see Table 3) for cytometry. The labeling was accomplished by washing the cells with PBS (phosphate buffered saline). Then gamma globulin was used to block non-specific binding sites. The gamma globulin treatment lasted for approximately 20 minutes at room temperatures on a rocker shaker.
The antibody cocktail concentration for each antibody used was based on manufacturer's instruction adjusted for final cell number. The antibody cocktail was incubated for 30 minutes at room temperature on rocking shaker. Following the incubation, the cells were washed using PBS. The cells were resuspended in 1% ultrapure methanol free formaldehyde and refrigerated until analysis. The cells were analyzed using a BD FACSCalibur equipped with a high throughput sampler (HTS) which has a dual laser excitation line: argon (488 nm) and red diode (635 nm).
The positive control for these experiments was 100 nm vitamin D3 plus CD 14 antibody. The negative controls were (1) untreated cells plus antibody cocktails located on the plates; and (2) fresh untreated cells plus antibody cocktails located on separate plates.
HL-60 cells were exposed to five well studied chemical differentiation factors (dimethylsulfoxide (DMSO), Vitamin D3, Phorbol-12-myristate-13-acetate (PMA), Sodium butyrate+pH 7.8, and all-Trans Retinoic Acid (ATRA)) known to promote differentiation along three distinct pathways (neutrophil, monocyte, eosinophil/basophil) within the myeloid lineage. Differentiation was induced by creating binary and ternary five factor combinations using the five factors at three concentrations for the binary experiment and two concentrations for the ternary experiment.
To observe experiment-wide profiles of marker expression, we used the percentage of positive cells for all markers and constructed a profile for each combinatorial treatment. Hierarchical clustering orders the data so that the most similar profile are next to each other in the plot.
To refine cluster analysis with relevant information, one can choose specific cell surface markers. In order to test the validity of the experiment, we clustered based on cell surface markers known to be expressed in the myeloid lineage: CD66b, CD11b/Mac-1, CD13+CD 14 (FIG. 8 a,b). Cells which have differentiated toward the monocytic lineage have a CD 14^hi, CD11b/Mac-1^hi, CD 13^+, CD66b^− expression profile.

Take `CCCC(=O)[O-].[Na+]` [sodium butyrate, Sodium butyrate]: the “expression of cell surface marker CD 125w” value is reported as “neither DMSO^med nor sodium butyrate^med, pH 7.8 alone produced cells positive for CD 125w”.

In the case of `C[S+](C)[O-]` [DMSO, dimethylsulfoxide], the “expression of cell surface marker CD 125w” value was “neither DMSO^med nor sodium butyrate^med, pH 7.8 alone produced cells positive for CD 125w”.

Turning to `CCCCCCCCCCCCCC(=O)O[C@@H]1[C@@H](C)[C@@]2(O)[C@@H](C=C(CO)C[C@]3(O)C(=O)C(C)=C[C@@H]23)[C@@H]2C(C)(C)[C@]12OC(C)=O` [PMA, Phorbol-12-myristate-13-acetate], the “monocyte signature profile (CD 14hi, CD11b/Mac-1hi, CD 13+, CD66b-)” value is reported as “contributed to the monocyte signature profile”.

Turning to `C=C1CC[C@H](O)C/C1=C/C=C1\CCC[C@]2(C)[C@@H]([C@H](C)CCCC(C)C)CC[C@@H]12` [Vitamin D3], the “monocyte signature profile (CD 14hi, CD11b/Mac-1hi, CD 13+, CD66b-)” value is reported as “contributed to the monocyte signature profile”.
